Laboratory results from Sander's compilation of Henry's law constants (doi:10.1021/es00081a021).

assay: Henry solubility constant Hcp at 298.15 K (mol/(m3 Pa)); settings: reference: Brunner et al. (1990)

Row | Compound | Henry solubility constant Hcp
1 | Clc1cccc(Cl)c1-c1c(Cl)cccc1Cl [2,2',6,6'-tetrachlorobiphenyl] | 0.049
2 | Clc1ccc(-c2ccc(Cl)c(Cl)c2Cl)c(Cl)c1 [2,2',3,4,4'-pentachlorobiphenyl] | 0.15
3 | Clc1ccc(Cl)c(-c2ccc(Cl)c(Cl)c2)c1 [2,3',4',5-tetrachlorobiphenyl] | 0.099
4 | Clc1cc(Cl)cc(-c2cc(Cl)c(Cl)c(Cl)c2Cl)c1 [2,3,3',4,5,5'-hexachlorobiphenyl] | 0.49
5 | Clc1cc(-c2c(Cl)ccc(Cl)c2Cl)c(Cl)c(Cl)c1Cl [2,2',3,3',4,5,6'-heptachlorobiphenyl] | 0.7
6 | Clc1cc(Cl)c(-c2c(Cl)cccc2Cl)cc1Cl [2,2',4,5,6'-pentachlorobiphenyl] | 0.11
7 | Clc1cc(Cl)c(-c2ccc(Cl)c(Cl)c2Cl)cc1Cl [2,2',3,4,4',5'-hexachlorobiphenyl] | 0.47
8 | Clc1cc(Cl)c(-c2ccccc2)c(Cl)c1Cl [2,3,4,6-tetrachlorobiphenyl] | 0.047
9 | Clc1cc(Cl)c(-c2c(Cl)c(Cl)cc(Cl)c2Cl)c(Cl)c1Cl [2,2',3,3',4,5',6,6'-octachlorobiphenyl] | 0.58
10 | Clc1cccc(-c2cc(Cl)c(Cl)cc2Cl)c1 [2,3',4,5-tetrachlorobiphenyl] | 0.099
11 | Clc1cccc(-c2c(Cl)c(Cl)c(Cl)c(Cl)c2Cl)c1Cl [2,2',3,3',4,5,6-heptachlorobiphenyl] | 0.7
12 | Clc1cc(Cl)c(Cl)c(-c2c(Cl)ccc(Cl)c2Cl)c1 [2,2',3,3',5,6'-hexachlorobiphenyl] | 0.18
13 | Clc1cc(-c2c(Cl)c(Cl)cc(Cl)c2Cl)c(Cl)c(Cl)c1Cl [2,2',3,3',4,5,5',6'-octachlorobiphenyl] | 0.99
14 | Clc1ccc(Cl)c(-c2cc(Cl)c(Cl)c(Cl)c2Cl)c1 [2,2',3,4,5,5'-hexachlorobiphenyl] | 0.43
15 | Clc1ccc(-c2ccc(Cl)c(Cl)c2)cc1 [3,4,4'-trichlorobiphenyl] | 0.099
16 | Clc1ccccc1-c1c(Cl)cccc1Cl [2,2',6-trichlorobiphenyl] | 0.043
17 | Clc1ccc(-c2cc(Cl)ccc2Cl)cc1 [2,4',5-trichlorobiphenyl] | 0.052
18 | Clc1cc(Cl)c(-c2cc(Cl)c(Cl)cc2Cl)cc1Cl [2,2',4,4',5,5'-hexachlorobiphenyl] | 0.43
19 | Clc1ccc(Cl)c(-c2cc(Cl)ccc2Cl)c1 [2,2',5,5'-tetrachlorobiphenyl] | 0.049

Row | Compound | Henry solubility constant Hcp
20 | Clc1ccc(-c2cc(Cl)c(Cl)cc2Cl)c(Cl)c1 [2,2',4,4',5-pentachlorobiphenyl] | 0.13
21 | Clc1cc(Cl)c(Cl)c(-c2ccc(Cl)c(Cl)c2Cl)c1 [2,2',3,3',4,5'-hexachlorobiphenyl] | 0.27
22 | Clc1ccc(Cl)c(-c2c(Cl)ccc(Cl)c2Cl)c1Cl [2,2',3,3',6,6'-hexachlorobiphenyl] | 0.11
23 | Clc1cc(-c2c(Cl)cc(Cl)c(Cl)c2Cl)c(Cl)c(Cl)c1Cl [2,2',3,3',4,4',5,6'-octachlorobiphenyl] | 0.99
24 | Clc1cc(-c2cc(Cl)c(Cl)c(Cl)c2Cl)c(Cl)c(Cl)c1Cl [2,2',3,3',4,4',5,5'-octachlorobiphenyl] | 0.99
25 | Clc1cccc(-c2c(Cl)c(Cl)c(Cl)c(Cl)c2Cl)c1 [2,3,3',4,5,6-hexachlorobiphenyl] | 0.49
26 | Clc1ccc(-c2ccccc2)cc1Cl [3,4-dichlorobiphenyl] | 0.07
27 | Clc1ccc(Cl)c(-c2c(Cl)c(Cl)cc(Cl)c2Cl)c1Cl [2,2',3,3',5,6,6'-heptachlorobiphenyl] | 0.41
28 | Clc1cccc(-c2cccc(Cl)c2Cl)c1Cl [2,2',3,3'-tetrachlorobiphenyl] | 0.099
29 | Clc1cccc(-c2ccccc2Cl)c1 [2,3'-dichlorobiphenyl] | 0.039
30 | Clc1cc(Cl)cc(-c2c(Cl)c(Cl)cc(Cl)c2Cl)c1 [2,3,3',5,5',6-hexachlorobiphenyl] | 0.34
31 | Clc1ccc(-c2c(Cl)c(Cl)cc(Cl)c2Cl)c(Cl)c1 [2,2',3,4',5,6-hexachlorobiphenyl] | 0.19
32 | Clc1cccc(-c2cc(Cl)cc(Cl)c2)c1 [3,3',5-trichlorobiphenyl] | 0.058
33 | Clc1cccc(-c2cc(Cl)c(Cl)c(Cl)c2Cl)c1Cl [2,2',3,3',4,5-hexachlorobiphenyl] | 0.34
34 | Clc1cc(Cl)c(Cl)c(-c2c(Cl)c(Cl)cc(Cl)c2Cl)c1Cl [2,2',3,3',5,5',6,6'-octachlorobiphenyl] | 0.55
35 | Clc1ccc(Cl)c(-c2ccccc2)c1Cl [2,3,6-trichlorobiphenyl] | 0.045
36 | Clc1ccc(Cl)c(-c2ccccc2Cl)c1 [2,2',5-trichlorobiphenyl] | 0.039
37 | Clc1cc(Cl)c(Cl)c(-c2cc(Cl)c(Cl)cc2Cl)c1 [2,2',3,4',5,5'-hexachlorobiphenyl] | 0.39
38 | Clc1cc(Cl)c(-c2cccc(Cl)c2Cl)cc1Cl [2,2',3,4',5'-pentachlorobiphenyl] | 0.13
